Experimental findings from US20160067331A1 (priority 2013, published 2016) are described below.

Test [1] deals with T cell receptor (TCR) signaling. Format: cell-based, human.
The target in a further test is Lck (Homo sapiens, UniProt P06239). It is filed as biochemical.
Chain of Lck (P06239 whole entry): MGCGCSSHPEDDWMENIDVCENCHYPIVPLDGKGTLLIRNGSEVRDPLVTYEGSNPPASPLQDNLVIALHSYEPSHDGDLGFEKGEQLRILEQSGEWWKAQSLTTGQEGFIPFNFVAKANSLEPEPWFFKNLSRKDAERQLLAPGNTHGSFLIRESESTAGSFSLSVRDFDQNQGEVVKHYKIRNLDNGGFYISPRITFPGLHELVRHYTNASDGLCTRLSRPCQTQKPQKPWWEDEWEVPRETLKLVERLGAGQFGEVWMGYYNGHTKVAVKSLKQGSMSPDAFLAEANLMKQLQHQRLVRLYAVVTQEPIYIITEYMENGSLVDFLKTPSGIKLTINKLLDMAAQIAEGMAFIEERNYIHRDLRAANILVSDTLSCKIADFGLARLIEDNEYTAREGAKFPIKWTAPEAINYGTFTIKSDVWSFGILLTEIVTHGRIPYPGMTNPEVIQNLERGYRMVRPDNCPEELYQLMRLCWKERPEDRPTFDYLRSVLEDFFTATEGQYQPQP

For the sequence GGGGGRKKRRQRRRVYGSVSVTCVWGS [TAT-Y87], in test [1], the “IL-2 production by PBMCs following TCR stimulation” value was “inhibited”, the “surface expression of T cell activation marker CD25” value is “significantly reduced” and the “surface expression of T cell activation marker CD69” value is “significantly reduced”. On Lck, the “Lck-mediated phosphorylation of synthetic peptide” value was “phosphorylated by Lck in a dose-dependent manner”.

In the case of GGAGLTGGRYEPLVRRC [TAT-276-292], the “Lck-mediated phosphorylation of synthetic peptide” value at Lck is “served as an in vitro Lck substrate”.
